Legend:
serotonine (5HT) uptake [1] = assay: Inhibition of Serotonine uptake in vivo (synaptosomes from treated rats); parameters: species or system rat; key: the activity was expressed in increasing number of + signs; settings: 20 mg/kg intraperitoneal, female rats, brain removed after 30 minutes
Experimental: (§1) The inhibition of serotonine (5HT) uptake was measured in impure synaptosomes prepared from the entire brain of a female rat 19 to 21 days old using the technique of Kannengiesser et al. [Biochemical Pharmacology,Vol. 22, (1973) p. 73].
The tested products were intraperitoneally administered to groups of female rats 19 to 21 days old at doses of 5 to 20 mg/kg. After 30 minutes, the brain was removed and synaptosomes were prepared and placed in an incubator in the presence of 14 C-5HT as indicated in the previous test.

mice [2] = assay: Acute toxicity; assay type: in vivo; settings: intraperitoneal administration, determined 48 hours later
Experimental: The DL50 dose which kills 50% of mice after intraperitoneal administration of the tested compound was determined 48 hours later and the DL50 for the compound of Example 1 was about 75 mg/kg.

mice [3] = assay: Potentiation of effects of L-dopa in iproniazide-pretreated mice; assay type: in vivo; settings: male mice, intraperitoneal, iproniazide 75 mg/kg 18 hours before, L-dopa 100 mg/kg i.p. one hour after product; 60 min
Experimental: The administration of L-dopa to mice pretreated 18 hours previously with iproniazide produced certain number of symptoms; muscular hypertonicity, hyperactivity, agitation, crying, aggressiveness, salivation and exophthalmy. The intensity of these effects is potentiated by administration of an antidepressant one hour before the administration of L-dopa. Male mices received intraperitoneally 75 mg/kg of iproniazide 18 hours before the start of the test and the tested product was intraperitoneally administered in aqueous solution in increasing doses. One hour later, L-dopa was intraperitoneally administered at a dose of 100 mg/kg and the different symptoms were observed 15 and 30 minutes later. They were evaluated on a scale of 0 to 3 for each animal and the totals for each dose were determined. The ED50 dose which potentiates by 50% the L-dopa effects was determined to be about 20 mg/kg for the product of Example 1.

mice [4] = assay: Potentialization of effects of monoamine oxidase inhibitor (nialamide hyperactivity, actimetry); assay type: in vivo; parameters: key: ++: expressed in increasing number of + signs for a determined dose in mg/kg; +++: expressed in increasing number of + signs for a determined dose in mg/kg; settings: 30 minutes after nialamide 100 mg/kg i.p., actimetry for 6 hours
Experimental: The administration of a monoamine oxidase inhibitor to mice induces a hyperactive movement of the animals which is able to be potentialized by an antidepressant. Using the procedure of Carlsson et al. [Brain Research, Vol. 12 (1969), p. 456], a dose of 100 mg/kg of nialamide was intraperitoneally administered to mice 30 minutes before the intraperitoneal administration of the tested product and the values of actimetric measurements were recorded every 30 minutes for 6 hours. Potentiation of the effects of nialamide for the tested product was expressed in increasing number of + signs for a determined dose in mg/kg.

serotonine (5HT) uptake [5] = assay: Inhibition of Serotonine uptake in vitro (impure brain synaptosomes); assay type: biochemical; settings: female rat brain synaptosomes, 37° C. 5 minutes, 14C-5HT 10^-7 M
Experimental: as §1

## 7-amino-6,7-dihydro [5H] benzocycloheptene-hydrochloride [Example 1]
Serotonine (5HT) uptake [1]
  Relative power to inhibit the uptake of 14C-5HT: +
Mice [2]
  DL50 dose which kills 50% of mice: about 75 mg/kg
Mice [3]
  ED50 dose which potentiates by 50% the L-dopa effects: about 20 mg/kg
Mice [4]; 5 mg/kg intraperitoneal
  Potentiation of the effects of nialamide: ++
Mice [4]; 20 mg/kg intraperitoneal
  Potentiation of the effects of nialamide: +++
Serotonine (5HT) uptake [5]
  IC50: ~2.4 µM
